Experimental findings from ChEMBL document CHEMBL1132249, “Design and synthesis of novel quinoxaline-2,3-dione AMPA/GlyN receptor antagonists: amino acid derivatives” (J Med Chem, 1999) are described below.

As usually defined, the IC50 is the concentration needed to halve the response being measured. Higher therefore signals lower potency. Broadly, the ED50 is the dose at which the effect has come halfway, by size or by number of responders. Read a low ED50 as greater potency. As usually defined, the solubility is the dissolved amount per volume that the medium holds. Higher therefore signals a readily soluble substance.

Series [1] in a line: In vitro binding affinity against glycine receptor binding site using [3H]- Glycine as radioligand on rat cortical synaptosomal membranes.
The species entered for a further series is Mus musculus. The series can be described thus: Anticonvulsant activity in mice was determined from maximal electroshock assay. The series is classed as functional. In general terms: Protection in the maximal electroshock model is a classic sign of anticonvulsant action.
A short description of series [2]: Solubility was measured in 50 mM phosphate buffer at pH 7.4. The series is classed as physicochemical.
Series [3] addresses Glutamate receptor ionotropic, AMPA (Rattus norvegicus, UniProt P19490+P19491+P19492+P19493). The series can be described thus: In vitro binding affinity against Ionotropic glutamate receptor AMPA binding site using [3H]- AMPA as radioligand on rat cortical synaptosomal membranes.

The structures appear in SMILES notation. ≈ marks a conversion by molar mass, not a printed value.

`CN1CCc2c([N+](=O)[O-])cc3nc(O)c(O)nc3c2C1`: in series [1], the IC50 turned out to be 370 nM. The compound further had an ED50 in the series listed under Mus musculus of 0.44 mg/kg. In series [2], this compound returned a solubility of 8.6 µg/mL (≈ 31.1 µM).
In series [3], `CCc1c(Br)cc2nc(O)c(O)nc2c1CN(C)CC(=O)O` had an IC50 of 2320 nM. In addition, the solubility in series [2] turned out to be 140 µg/mL (≈ 378 µM).
`CCc1ccc2nc(O)c(O)nc2c1CN(C)CC(=O)O`: the IC50 in series [3] and in series [1] was above 10000 nM in each case.
Consider `CCc1c([N+](=O)[O-])cc2nc(O)c(O)nc2c1CN(C)CC(=O)O`, for which the IC50 in series [3] amounted to 140 nM; in series [1], 470 nM. The same compound gave a solubility in series [2] of 420 µg/mL (≈ 1250 µM).
In series [3], `C=Cc1c(Br)cc2nc(O)c(O)nc2c1CN(C)CC(=O)O` yielded an IC50 of 1180 nM. Moreover, in series [2], the concentration in solution (solubility) was 170 µg/mL (≈ 462 µM).
Turning to `CCOC(=O)CN(C)Cc1c(CC)c([N+](=O)[O-])cc2nc(O)c(O)nc12`, the IC50 in series [3] was 1590 nM; in series [1], above 10000 nM. Moreover, the solubility in series [2] is 150 µg/mL (≈ 412 µM).
